Experimental findings from ChEMBL document CHEMBL2169784, “Discovery and development of spleen tyrosine kinase (SYK) inhibitors” (J Med Chem, 2012) are described below.

A short description of data set [1]: Half life in rat at 10 mg/kg, po administered as single dose. It is filed as ADME, organism-based. Further details: dose 10 mg/kg, route oral. The conditions noted are these: in vivo.
The nature of data set [2]: Cmax in rat at 10 mg/kg, po after 2 hrs administered as single dose. The conditions noted are these: in vivo. Further details: dose 10 mg/kg, route oral. Format: ADME, organism-based.

One may read the half-life as the time in which the quantity being followed falls by half. A word on the Cmax: it is the maximum level reached in the sampled fluid or tissue. In data set [1], `COc1ccc(-c2cc3nccn3c(Nc3ncccc3C(N)=O)n2)cc1OC` had a half-life of 1.78 h. Besides, the highest level in data set [2] (Cmax) was 167 ng/mL.
